Reference: ChEMBL document CHEMBL5212743, “Selectivity Literature for EUbOPEN Chemogenomics Library wave 3” (2023)
Values belong to the molecule of their own block, whether it stands above or below them.

Experiments:
[1] = target: Protein ENL (Homo sapiens) (UniProt Q03111); assay: Selectivity interaction (DSF assay) EUB0000731a MLLT1
[2] = target: T1, YEATS domain-containing protein 4 (Homo sapiens, UniProt O95619); assay: Selectivity interaction (Enzyme panel (PDEs, ion channels, and GPCRS, HTRF assay)) EUB0000731a YEATS4
Protein AF-9 [3] = target: T2, Protein AF-9 (Homo sapiens, UniProt P42568)
Protein AF-9 [4] = target: T2, Protein AF-9; remark: listed apart in the source
[5] = target: T3, YEATS domain-containing protein 2 (Homo sapiens, UniProt Q9ULM3); assay: Selectivity interaction (Enzyme panel (PDEs, ion channels, and GPCRS, HTRF assay)) EUB0000731a YEATS2
T3 sequence (Q9ULM3 whole entry): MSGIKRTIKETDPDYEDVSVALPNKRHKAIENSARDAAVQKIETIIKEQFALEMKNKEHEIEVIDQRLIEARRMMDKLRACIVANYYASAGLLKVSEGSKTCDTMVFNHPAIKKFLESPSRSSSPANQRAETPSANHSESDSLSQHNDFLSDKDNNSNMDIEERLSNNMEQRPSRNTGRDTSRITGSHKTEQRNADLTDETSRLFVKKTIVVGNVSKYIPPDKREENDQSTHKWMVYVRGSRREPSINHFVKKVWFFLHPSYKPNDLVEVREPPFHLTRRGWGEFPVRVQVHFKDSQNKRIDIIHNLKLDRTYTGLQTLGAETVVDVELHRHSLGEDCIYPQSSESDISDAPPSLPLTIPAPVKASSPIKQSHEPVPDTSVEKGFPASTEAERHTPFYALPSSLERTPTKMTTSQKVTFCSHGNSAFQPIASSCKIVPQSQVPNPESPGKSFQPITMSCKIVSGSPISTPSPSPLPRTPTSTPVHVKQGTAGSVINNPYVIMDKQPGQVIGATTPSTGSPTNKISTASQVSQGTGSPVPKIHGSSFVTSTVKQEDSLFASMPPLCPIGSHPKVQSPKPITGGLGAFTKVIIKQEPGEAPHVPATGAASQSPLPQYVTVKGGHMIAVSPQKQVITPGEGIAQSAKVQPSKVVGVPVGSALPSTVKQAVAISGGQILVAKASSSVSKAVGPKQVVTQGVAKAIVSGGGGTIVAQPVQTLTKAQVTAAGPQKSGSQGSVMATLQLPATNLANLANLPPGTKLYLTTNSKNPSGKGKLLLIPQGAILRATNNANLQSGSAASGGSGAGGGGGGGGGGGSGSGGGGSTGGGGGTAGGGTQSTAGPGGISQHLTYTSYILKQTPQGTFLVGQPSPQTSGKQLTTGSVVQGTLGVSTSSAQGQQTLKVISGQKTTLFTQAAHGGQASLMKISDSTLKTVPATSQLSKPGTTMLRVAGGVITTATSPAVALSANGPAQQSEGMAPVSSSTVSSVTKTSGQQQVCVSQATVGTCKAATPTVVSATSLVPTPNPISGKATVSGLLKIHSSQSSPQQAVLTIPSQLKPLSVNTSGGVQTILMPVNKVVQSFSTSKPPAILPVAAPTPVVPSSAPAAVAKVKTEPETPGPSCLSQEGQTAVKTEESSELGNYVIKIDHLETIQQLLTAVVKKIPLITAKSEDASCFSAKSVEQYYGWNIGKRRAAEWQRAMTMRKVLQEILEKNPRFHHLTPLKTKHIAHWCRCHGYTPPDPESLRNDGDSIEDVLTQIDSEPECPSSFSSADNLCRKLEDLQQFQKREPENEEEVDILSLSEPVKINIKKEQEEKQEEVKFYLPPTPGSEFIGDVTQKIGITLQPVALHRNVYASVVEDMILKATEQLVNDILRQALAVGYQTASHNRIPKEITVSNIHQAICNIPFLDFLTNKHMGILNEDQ

[6] = target: Protein AF-9 (Homo sapiens) (UniProt P42568)
[7] = target: Bromodomain-containing protein 4 (Homo sapiens, UniProt O60885)
[8] = target: T4, Adenosine receptor A1 (Homo sapiens) (UniProt P30542); conditions: at 10 µM
T4 sequence (whole entry): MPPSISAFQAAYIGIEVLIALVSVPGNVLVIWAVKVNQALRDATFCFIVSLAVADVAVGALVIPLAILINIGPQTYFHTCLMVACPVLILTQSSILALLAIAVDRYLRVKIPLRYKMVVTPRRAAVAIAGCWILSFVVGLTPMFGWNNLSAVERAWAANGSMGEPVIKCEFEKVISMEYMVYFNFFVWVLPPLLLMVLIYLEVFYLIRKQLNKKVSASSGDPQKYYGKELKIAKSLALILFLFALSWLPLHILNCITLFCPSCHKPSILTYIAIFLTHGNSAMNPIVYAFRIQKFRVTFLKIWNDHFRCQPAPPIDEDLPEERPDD

[9] = target: Bromodomain-containing protein 1 (Homo sapiens, UniProt O95696); assay: Selectivity interaction (AlphaScreen) EUB0000323b BRD1
[10] = target: Bromodomain-containing protein 1 (Homo sapiens) (UniProt O95696)
[11] = target: Bromodomain and PHD finger-containing protein 3 (Homo sapiens) (UniProt Q9ULD4)
[12] = target: T5, Adenosine receptor A3 (Homo sapiens) (UniProt P0DMS8); conditions: at 10 µM
T5 sequence (whole entry): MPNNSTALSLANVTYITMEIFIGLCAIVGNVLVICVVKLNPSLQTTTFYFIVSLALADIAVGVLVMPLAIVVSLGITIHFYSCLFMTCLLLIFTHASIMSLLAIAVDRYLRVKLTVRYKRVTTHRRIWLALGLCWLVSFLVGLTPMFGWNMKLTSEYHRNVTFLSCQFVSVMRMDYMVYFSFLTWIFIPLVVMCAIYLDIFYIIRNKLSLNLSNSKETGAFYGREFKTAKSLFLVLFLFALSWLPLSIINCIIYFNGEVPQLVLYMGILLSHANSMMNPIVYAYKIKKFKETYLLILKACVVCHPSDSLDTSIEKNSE

[13] = target: 5-hydroxytryptamine receptor 6 (Homo sapiens) (UniProt P50406); conditions: at 10 µM
Peregrin (Homo sapiens) = Peregrin (Homo sapiens) (UniProt P55201)
[14] = target: T3, YEATS domain-containing protein 2; assay: Selectivity interaction (HTRF-based inhibition assay) EUB0000732a YEATS2
[15] = target: T1, YEATS domain-containing protein 4; assay: Selectivity interaction (HTRF-based inhibition assay) EUB0000732a YEATS4
[16] = target: 5-hydroxytryptamine receptor 2B (Homo sapiens, UniProt P41595); assay: Selectivity interaction (CEREP panel (cellular receptors and 30 other enzymes)) EUB0000199c HTR2B
[17] = target: T6, Alpha-1A adrenergic receptor (Homo sapiens, UniProt P35348); assay: Selectivity interaction (CEREP panel (cellular receptors and 30 other enzymes)) EUB0000199c ADRA1A
T6 sequence (P35348 whole entry): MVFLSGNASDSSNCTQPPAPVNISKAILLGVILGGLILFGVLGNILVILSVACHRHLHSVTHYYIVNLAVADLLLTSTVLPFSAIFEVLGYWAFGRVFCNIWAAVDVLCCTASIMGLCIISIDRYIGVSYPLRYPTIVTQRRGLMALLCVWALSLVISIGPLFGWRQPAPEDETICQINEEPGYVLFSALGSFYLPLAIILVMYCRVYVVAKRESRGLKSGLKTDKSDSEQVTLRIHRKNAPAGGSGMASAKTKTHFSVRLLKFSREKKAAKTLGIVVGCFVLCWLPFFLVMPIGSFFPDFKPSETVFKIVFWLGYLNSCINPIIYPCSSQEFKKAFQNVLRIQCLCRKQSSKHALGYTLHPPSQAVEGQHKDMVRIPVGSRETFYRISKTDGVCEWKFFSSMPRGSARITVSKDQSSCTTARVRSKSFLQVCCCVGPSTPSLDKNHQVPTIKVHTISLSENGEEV

[18] = target: T7, Alpha-1B adrenergic receptor (Homo sapiens, UniProt P35368); assay: Selectivity interaction (CEREP panel (cellular receptors and 30 other enzymes)) EUB0000199c ADRA1B
T7 sequence (P35368 whole entry): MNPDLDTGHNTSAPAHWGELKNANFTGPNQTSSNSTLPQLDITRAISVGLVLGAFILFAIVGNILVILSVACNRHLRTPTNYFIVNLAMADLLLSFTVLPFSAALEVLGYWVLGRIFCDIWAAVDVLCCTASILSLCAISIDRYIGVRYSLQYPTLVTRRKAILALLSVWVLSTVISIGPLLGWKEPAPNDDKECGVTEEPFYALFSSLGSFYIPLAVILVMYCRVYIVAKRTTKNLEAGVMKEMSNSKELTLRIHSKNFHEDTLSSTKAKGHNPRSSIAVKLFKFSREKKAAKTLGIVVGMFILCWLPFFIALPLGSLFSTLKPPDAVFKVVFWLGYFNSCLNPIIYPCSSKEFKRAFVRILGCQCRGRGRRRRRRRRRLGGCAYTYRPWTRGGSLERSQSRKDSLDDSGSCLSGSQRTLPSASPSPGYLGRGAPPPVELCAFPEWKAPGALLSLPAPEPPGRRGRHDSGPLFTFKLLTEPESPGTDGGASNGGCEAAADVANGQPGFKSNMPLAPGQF

[19] = target: Kappa-type opioid receptor (Homo sapiens, UniProt P41145); assay: Selectivity interaction (CEREP panel (cellular receptors and 30 other enzymes)) EUB0000199c OPRK1
[20] = target: SWI/SNF-related matrix-associated actin-dependent regulator of chromatin subfamily A member 2 (Homo sapiens) (UniProt P51531); assay: Selectivity interaction (Bromodomain panel (DSF assay)) EUB0000199c SMARCA2
Protein ENL [21] = target: T8, Protein ENL (Homo sapiens, UniProt Q03111); assay: Selectivity interaction (BioLayer Interferometry assay (BLI)) EUB0000283b MLLT1
Histamine H3 receptor = Histamine H3 receptor (Homo sapiens, UniProt Q9Y5N1); assay: Selectivity interaction (PSP Principial panel 20118+ (panel of GPCRs, transporter, and ion channels)) EUB0000283b HRH3
Protein ENL [22] = target: T8, Protein ENL; assay: Selectivity interaction (ITC) EUB0000283b MLLT1
[23] = target: T3, YEATS domain-containing protein 2; assay: Selectivity interaction (Bromodomain panel (TR-FRET assay)) EUB0000283b YEATS2
[24] = target: Sodium-dependent noradrenaline transporter (Homo sapiens, UniProt P23975); assay: Selectivity interaction (PSP Principial panel 20118+ (panel of GPCRs, transporter, and ion channels)) EUB0000283b SLC6A2
[25] = target: Muscarinic acetylcholine receptor M2 (Homo sapiens, UniProt P08172); assay: Selectivity interaction (PSP Principial panel 20118+ (panel of GPCRs, transporter, and ion channels)) EUB0000283b CHRM2
[26] = target: Serine/threonine-protein kinase pim-1 (Homo sapiens, UniProt P11309); assay: Selectivity interaction (PSP kinase safety panel (Eurofins)) EUB0000283b PIM1
Acetylcholinesterase = Acetylcholinesterase (Homo sapiens, UniProt P22303); assay: Selectivity interaction (PSP Principial panel 20118+ (panel of GPCRs, transporter, and ion channels)) EUB0000283b ACHE
Tribbles homolog 2 = Tribbles homolog 2 (Homo sapiens, UniProt Q92519); assay: Selectivity interaction (PSP kinase safety panel (Eurofins)) EUB0000283b TRIB2
[27] = target: T1, YEATS domain-containing protein 4; assay: Selectivity interaction (Bromodomain panel (TR-FRET assay)) EUB0000283b YEATS4
[28] = target: Chromatin remodeling regulator CECR2 (Homo sapiens, UniProt Q9BXF3); assay: Selectivity interaction (Bromodomain panel (TR-FRET assay)) EUB0000283b CECR2
[29] = target: Vascular endothelial growth factor receptor 2 (Homo sapiens, UniProt P35968); assay: Selectivity interaction (Kinase panel (literature or Upstate/Millipore)) EUB0000665a KDR

T1 sequence (O95619 whole entry, the tested form may be a part): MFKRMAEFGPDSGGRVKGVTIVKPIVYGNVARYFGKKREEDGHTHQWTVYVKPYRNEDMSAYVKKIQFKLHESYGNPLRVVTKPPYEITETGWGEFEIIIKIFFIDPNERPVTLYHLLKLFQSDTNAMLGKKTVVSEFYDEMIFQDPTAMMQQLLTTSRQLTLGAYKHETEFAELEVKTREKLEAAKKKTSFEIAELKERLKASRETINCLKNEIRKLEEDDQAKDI
T8 sequence (Q03111 whole entry): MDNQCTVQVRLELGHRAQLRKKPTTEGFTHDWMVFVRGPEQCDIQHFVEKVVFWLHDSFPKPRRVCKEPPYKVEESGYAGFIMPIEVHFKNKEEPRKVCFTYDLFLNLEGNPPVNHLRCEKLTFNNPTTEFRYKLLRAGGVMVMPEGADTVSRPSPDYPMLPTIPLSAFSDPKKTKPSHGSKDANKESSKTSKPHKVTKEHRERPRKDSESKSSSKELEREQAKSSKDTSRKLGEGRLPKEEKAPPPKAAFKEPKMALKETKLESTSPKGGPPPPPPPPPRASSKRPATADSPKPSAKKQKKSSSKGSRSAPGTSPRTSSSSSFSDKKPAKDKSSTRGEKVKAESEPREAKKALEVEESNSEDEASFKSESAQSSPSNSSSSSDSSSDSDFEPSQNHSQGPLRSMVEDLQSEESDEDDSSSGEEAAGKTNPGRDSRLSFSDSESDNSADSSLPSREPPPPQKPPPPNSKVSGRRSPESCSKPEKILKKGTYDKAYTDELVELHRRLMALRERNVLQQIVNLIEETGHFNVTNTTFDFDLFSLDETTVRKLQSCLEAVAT
T2 sequence (P42568 whole entry): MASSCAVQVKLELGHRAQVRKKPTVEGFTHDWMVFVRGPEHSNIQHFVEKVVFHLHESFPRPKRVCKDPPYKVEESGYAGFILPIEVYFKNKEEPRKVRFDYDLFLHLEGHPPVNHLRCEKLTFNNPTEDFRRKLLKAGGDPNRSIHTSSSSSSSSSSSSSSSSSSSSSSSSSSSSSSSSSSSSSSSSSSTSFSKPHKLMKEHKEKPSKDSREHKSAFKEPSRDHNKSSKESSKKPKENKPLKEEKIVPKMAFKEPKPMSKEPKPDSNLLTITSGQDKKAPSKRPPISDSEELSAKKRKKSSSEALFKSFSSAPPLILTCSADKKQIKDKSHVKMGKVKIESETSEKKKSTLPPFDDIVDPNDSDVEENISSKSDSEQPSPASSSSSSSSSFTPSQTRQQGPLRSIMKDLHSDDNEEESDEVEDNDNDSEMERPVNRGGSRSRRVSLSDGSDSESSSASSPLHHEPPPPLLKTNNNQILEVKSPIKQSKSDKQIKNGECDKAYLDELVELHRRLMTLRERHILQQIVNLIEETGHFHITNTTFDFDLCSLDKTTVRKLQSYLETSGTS
Bromodomain and PHD finger-containing protein 3 (Homo sapiens), sequence (Q9ULD4 whole entry): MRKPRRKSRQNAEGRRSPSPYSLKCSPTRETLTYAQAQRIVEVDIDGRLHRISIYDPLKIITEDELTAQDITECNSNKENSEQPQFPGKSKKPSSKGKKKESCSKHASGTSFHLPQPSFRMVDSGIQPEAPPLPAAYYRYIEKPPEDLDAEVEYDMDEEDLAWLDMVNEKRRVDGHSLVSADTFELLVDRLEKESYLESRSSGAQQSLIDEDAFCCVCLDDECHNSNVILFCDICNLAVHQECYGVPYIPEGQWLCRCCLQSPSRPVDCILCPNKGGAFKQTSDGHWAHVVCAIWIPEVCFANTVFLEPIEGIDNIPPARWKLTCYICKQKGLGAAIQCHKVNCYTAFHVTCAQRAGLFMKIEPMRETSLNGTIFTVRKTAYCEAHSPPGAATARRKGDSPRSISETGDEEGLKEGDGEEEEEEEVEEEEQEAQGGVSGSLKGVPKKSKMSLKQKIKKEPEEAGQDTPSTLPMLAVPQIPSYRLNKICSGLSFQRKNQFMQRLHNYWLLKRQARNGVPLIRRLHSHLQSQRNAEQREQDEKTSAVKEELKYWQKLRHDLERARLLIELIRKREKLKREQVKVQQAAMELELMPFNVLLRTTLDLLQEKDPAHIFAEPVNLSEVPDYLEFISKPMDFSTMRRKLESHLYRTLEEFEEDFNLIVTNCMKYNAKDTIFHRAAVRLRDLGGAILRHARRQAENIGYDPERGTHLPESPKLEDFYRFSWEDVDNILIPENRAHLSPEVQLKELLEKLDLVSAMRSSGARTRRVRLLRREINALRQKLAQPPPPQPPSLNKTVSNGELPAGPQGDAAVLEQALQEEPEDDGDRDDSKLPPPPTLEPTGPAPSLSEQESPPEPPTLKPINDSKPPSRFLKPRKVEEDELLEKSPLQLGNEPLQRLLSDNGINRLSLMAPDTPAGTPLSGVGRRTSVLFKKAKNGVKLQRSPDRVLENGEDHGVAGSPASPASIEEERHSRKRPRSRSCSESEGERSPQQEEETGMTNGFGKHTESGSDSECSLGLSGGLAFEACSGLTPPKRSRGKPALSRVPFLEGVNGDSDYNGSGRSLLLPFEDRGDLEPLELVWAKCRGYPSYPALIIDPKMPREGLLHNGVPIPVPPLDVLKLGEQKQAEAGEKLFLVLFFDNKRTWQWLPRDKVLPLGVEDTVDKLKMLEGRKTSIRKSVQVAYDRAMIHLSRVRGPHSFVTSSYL
Histamine H3 receptor, sequence (Q9Y5N1 whole entry): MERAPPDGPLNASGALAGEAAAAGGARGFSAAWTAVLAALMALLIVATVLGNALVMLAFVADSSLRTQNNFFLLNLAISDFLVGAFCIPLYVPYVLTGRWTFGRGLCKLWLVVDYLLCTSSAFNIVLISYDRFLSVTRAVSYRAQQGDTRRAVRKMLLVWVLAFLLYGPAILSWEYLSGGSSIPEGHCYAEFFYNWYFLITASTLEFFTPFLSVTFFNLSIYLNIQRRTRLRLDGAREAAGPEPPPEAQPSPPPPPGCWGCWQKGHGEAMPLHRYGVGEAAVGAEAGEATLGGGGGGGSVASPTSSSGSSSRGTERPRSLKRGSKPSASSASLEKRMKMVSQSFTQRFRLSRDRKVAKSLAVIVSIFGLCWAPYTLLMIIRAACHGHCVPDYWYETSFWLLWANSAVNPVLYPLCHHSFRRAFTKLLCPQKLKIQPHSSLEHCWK
Bromodomain-containing protein 1, sequence (O95696 whole entry): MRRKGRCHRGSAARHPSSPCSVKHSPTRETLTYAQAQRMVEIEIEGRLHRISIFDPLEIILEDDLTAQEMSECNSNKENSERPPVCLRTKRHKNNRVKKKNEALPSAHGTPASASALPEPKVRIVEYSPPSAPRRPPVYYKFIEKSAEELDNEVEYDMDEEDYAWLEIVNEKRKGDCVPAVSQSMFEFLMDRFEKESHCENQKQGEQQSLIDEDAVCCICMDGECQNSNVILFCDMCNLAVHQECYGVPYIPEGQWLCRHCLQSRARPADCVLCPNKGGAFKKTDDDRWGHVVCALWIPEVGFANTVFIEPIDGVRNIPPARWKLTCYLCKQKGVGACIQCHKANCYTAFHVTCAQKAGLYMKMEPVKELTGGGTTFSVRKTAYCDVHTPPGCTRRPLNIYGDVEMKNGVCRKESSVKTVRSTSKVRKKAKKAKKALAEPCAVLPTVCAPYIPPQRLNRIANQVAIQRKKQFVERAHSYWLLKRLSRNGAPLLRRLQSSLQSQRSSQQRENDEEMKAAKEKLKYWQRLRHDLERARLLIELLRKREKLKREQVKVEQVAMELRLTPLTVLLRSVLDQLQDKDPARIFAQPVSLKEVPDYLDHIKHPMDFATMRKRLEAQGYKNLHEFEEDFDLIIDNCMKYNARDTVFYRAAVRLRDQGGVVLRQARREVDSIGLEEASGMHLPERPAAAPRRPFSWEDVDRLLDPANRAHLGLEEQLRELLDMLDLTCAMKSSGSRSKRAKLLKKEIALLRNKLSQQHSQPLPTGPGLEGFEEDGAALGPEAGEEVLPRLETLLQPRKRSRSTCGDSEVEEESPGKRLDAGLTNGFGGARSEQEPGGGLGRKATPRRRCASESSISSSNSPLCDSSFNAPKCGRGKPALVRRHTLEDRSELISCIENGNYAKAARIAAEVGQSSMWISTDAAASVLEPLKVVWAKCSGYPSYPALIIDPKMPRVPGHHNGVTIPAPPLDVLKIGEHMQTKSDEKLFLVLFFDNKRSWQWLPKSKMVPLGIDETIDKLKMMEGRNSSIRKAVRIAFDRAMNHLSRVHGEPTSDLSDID
Bromodomain-containing protein 1 (Homo sapiens), sequence (O95696 whole entry): as above
Protein ENL (Homo sapiens), sequence (Q03111 whole entry, the tested form may be a part): as the sequence (Q03111 whole entry) above
5-hydroxytryptamine receptor 2B, sequence (P41595 whole entry): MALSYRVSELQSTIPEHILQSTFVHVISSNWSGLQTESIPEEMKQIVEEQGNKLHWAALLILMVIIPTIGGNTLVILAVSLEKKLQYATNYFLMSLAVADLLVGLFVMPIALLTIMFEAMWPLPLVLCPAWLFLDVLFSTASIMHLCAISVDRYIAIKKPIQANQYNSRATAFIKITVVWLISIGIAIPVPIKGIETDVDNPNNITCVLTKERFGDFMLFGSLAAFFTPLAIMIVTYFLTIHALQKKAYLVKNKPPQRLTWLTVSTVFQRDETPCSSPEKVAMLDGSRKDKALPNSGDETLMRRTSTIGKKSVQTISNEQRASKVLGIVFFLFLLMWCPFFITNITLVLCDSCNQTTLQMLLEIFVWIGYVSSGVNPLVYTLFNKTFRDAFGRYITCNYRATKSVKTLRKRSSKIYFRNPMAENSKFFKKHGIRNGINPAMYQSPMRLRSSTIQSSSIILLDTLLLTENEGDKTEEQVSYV
Serine/threonine-protein kinase pim-1, sequence (P11309 whole entry): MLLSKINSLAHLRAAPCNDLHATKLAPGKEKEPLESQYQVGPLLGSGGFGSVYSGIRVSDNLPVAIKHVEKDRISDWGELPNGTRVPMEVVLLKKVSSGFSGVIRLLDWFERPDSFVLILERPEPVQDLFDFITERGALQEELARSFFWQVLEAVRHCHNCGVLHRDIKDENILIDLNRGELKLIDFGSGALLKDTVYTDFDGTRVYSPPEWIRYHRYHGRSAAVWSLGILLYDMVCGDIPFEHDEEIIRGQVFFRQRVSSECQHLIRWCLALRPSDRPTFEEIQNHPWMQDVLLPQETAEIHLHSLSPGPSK
Protein AF-9 (Homo sapiens), sequence (P42568 whole entry): as the sequence (P42568 whole entry) above

dTm [1]: 3.61 K
IC50 [2]: > 40000 nM
Kd (Protein AF-9 [3]): 110 nM
Kd (Protein AF-9 [4]): 76 nM
IC50 [5]: > 40000 nM
dTm [6]: 5.13 K
Structure (SMILES): CN(C)C(=O)c1ccc(-c2cc(C(=O)N[C@@H]3CCc4ccccc43)no2)cc1O

dTm [7]: 2.1 K
% of inhibition [8]: 82%
IC50 [9]: 2200 nM
dTm [10]: 3.1 K
dTm [11]: 3.3 K
% of inhibition [12]: 53%
% of inhibition [13]: 54%
dTm (Peregrin (Homo sapiens)): 6.5 K
Structure (SMILES): COc1cc2c(cc1NS(=O)(=O)c1ccc(Br)cc1C)n(C)c(=O)n2C

IC50 [14]: > 30000 nM
IC50 [15]: > 30000 nM
Structure (SMILES): CN(C)C(=O)c1ccc(-c2cc(C(=O)N(C)C3CCCC3)no2)cc1O

IC50 [16]: 4000 nM
IC50 [17]: 440 nM
IC50 [18]: 3600 nM
IC50 [19]: 13000 nM
dTm [20]: 9.2 K
Structure (SMILES): O=C(/C=C/N1C[C@H]2C[C@@H]1CN2c1ccccn1)c1ccccc1O

Structure (SMILES): C[C@H]1CCCN1Cc1nc2cc(NC(=O)c3ccc4cnccc4c3)ccc2[nH]1
Kd (Protein ENL [21]): 75 nM
IC50 (Histamine H3 receptor): 290 nM
Kd (Protein ENL [22]): 109 nM
IC50 [23]: > 20000 nM
IC50 [24]: 8700 nM
IC50 [25]: 1800 nM
IC50 [26]: 8600 nM
IC50 (Acetylcholinesterase): 250 nM
IC50 (Tribbles homolog 2): 3500 nM
IC50 [27]: > 20000 nM
IC50 [28]: > 40000 nM

IC50 [29]: 8 nM
Structure (SMILES): Cn1cc(-c2[nH]c3cc(NC(=O)[C@H](N)C4CCCCC4)cc4c3c2C=NNC4=O)cn1
